Reference: paper PMC6458995, “MAP4K4 Inhibition Promotes Survival of Human Stem Cell-Derived Cardiomyocytes and Reduces Infarct Size In Vivo” (Cell Stem Cell, 2019)

What was measured:
Test in all cases: HTRF Transcreener ADP kinase assay
Type in all cases: biochemical
[1] = target: ABL1 (Homo sapiens, UniProt P00519); details: for IC50: HTRF Transcreener ADP assay
Experimental: (§1) MAP4K4 kinase activity was monitored using the CisBio HTRF Transcreener ADP assay, a competitive immunoassay with a reproducible Z’ > 0.6. In the detection step, endogenous ADP and d2-labeled ADP compete for binding an anti-ADP monoclonal antibody labeled with Eu^3+ cryptate. A ratiometric fluorescent readout is used at 665 and 620 nm. […] Assays were run in Greiner low volume plates with a final reaction volume of 10 μl. Percent inhibition was calculated from 100% activity of MAP4K4 (DMSO only) and 0% activity (no enzyme added). Data were either reported as % inhibition at a single dose or as pIC50 values derived from dose response curves (pIC50 = -log[IC50]).
(§2) Kinase selectivity profiling was performed by the International Centre for Kinase Profiling, MRC Protein Phosphorylation and Ubiquitylation Unit (141 kinases; Premier Screen, http://www.kinase-screen.mrc.ac.uk), using a [γ-^33P]ATP filter binding assay ([Bain et al., 2007]). Compounds were screened at 1 μM. For key hits, pIC50 values were then determined by HTRF as above. More complete kinome profiling was performed by Reaction Biology (376 kinases). Stability in mouse and human liver microsomes was determined by Cyprotex.

[2] = target: T1, Aurora B (Homo sapiens, UniProt Q96GD4)
T1 construct: lines 1-140) and Reaction Biology
T1 sequence (Q96GD4 whole entry): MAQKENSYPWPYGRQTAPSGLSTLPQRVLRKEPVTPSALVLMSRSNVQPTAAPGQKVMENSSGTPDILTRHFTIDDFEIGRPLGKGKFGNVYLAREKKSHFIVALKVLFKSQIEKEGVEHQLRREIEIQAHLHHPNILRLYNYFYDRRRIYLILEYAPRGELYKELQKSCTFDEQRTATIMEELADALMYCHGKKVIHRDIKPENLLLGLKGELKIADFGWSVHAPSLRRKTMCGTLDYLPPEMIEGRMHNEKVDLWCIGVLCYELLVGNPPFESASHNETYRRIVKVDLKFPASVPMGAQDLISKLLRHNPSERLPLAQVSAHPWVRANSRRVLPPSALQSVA
Experimental: as §1, §2

[3] = target: FLT3 (Homo sapiens, UniProt P36888)
Experimental: as §1, §2

[4] = target: T2, GCK/MAP4K2 (Homo sapiens, UniProt Q12851); details: for IC50: HTRF Transcreener ADP assay
T2 sequence (Q12851 1-820): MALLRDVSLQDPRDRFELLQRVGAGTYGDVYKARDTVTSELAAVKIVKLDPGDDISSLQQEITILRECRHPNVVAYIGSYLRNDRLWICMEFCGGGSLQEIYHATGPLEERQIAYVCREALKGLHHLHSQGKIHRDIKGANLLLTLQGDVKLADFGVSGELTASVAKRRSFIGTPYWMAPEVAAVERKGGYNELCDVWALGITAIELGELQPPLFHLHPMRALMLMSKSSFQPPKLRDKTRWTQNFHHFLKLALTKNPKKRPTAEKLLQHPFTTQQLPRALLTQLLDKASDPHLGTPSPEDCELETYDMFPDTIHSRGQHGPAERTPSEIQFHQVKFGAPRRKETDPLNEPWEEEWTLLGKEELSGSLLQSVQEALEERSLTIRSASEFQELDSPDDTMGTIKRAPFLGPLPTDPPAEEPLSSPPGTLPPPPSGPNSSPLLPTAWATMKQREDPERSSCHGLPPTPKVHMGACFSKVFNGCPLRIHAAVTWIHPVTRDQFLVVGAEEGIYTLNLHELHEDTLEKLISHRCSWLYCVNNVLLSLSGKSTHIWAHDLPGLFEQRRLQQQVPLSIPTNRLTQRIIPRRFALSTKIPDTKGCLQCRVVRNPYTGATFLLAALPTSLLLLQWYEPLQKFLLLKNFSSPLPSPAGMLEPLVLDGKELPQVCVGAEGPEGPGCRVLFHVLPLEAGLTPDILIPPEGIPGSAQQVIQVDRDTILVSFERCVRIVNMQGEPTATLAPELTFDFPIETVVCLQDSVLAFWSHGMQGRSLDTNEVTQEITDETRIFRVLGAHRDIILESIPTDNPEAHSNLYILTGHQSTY
Experimental: as §1, §2

[5] = target: T3, GLK/MAP4K3 (Homo sapiens, UniProt Q8IVH8); details: for IC50: HTRF Transcreener ADP assay
T3 sequence (Q8IVH8 1-894): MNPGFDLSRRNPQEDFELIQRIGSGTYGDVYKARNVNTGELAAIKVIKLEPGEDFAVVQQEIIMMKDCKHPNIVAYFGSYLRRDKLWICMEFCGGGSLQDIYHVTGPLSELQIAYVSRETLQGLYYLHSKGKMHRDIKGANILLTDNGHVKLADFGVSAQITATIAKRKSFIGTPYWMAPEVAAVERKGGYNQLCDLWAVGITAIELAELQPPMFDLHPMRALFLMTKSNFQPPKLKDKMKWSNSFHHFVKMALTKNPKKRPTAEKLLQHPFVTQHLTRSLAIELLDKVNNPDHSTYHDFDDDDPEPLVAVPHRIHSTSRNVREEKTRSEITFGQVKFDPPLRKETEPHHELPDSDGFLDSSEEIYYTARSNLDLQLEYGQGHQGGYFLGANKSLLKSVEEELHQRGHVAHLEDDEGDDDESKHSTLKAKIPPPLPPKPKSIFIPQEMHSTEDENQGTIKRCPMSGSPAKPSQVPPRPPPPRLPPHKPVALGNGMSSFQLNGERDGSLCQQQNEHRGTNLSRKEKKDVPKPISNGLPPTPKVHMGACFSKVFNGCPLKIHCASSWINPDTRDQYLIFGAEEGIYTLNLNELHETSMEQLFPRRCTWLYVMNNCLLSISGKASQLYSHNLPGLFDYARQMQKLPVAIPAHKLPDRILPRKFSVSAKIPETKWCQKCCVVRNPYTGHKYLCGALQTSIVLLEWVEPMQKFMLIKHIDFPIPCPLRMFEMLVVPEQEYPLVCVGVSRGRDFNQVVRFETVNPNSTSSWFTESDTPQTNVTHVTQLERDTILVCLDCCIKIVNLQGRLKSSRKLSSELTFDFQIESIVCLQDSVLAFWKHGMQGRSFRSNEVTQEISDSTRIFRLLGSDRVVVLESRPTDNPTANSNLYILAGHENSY
Experimental: as §1, §2

[6] = target: GSK3β (Homo sapiens, UniProt P49841); details: for IC50: HTRF Transcreener ADP assay
Chain of GSK3β (P49841 whole entry): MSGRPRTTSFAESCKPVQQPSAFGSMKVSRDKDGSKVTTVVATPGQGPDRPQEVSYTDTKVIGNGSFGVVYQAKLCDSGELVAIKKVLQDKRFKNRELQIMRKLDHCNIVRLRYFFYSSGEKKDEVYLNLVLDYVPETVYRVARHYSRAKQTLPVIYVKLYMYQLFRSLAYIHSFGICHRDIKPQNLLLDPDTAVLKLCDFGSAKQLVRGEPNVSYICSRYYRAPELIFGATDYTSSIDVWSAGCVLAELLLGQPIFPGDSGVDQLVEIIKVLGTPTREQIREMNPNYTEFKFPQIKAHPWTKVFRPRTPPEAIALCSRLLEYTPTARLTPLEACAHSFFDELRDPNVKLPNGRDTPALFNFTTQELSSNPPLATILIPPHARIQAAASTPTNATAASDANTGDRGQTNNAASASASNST
Experimental: as §1, §2

[7] = target: KHS/MAP4K5 (Homo sapiens, UniProt Q9Y4K4); details: for IC50: HTRF Transcreener ADP assay
Chain of KHS/MAP4K5 (Q9Y4K4 whole entry): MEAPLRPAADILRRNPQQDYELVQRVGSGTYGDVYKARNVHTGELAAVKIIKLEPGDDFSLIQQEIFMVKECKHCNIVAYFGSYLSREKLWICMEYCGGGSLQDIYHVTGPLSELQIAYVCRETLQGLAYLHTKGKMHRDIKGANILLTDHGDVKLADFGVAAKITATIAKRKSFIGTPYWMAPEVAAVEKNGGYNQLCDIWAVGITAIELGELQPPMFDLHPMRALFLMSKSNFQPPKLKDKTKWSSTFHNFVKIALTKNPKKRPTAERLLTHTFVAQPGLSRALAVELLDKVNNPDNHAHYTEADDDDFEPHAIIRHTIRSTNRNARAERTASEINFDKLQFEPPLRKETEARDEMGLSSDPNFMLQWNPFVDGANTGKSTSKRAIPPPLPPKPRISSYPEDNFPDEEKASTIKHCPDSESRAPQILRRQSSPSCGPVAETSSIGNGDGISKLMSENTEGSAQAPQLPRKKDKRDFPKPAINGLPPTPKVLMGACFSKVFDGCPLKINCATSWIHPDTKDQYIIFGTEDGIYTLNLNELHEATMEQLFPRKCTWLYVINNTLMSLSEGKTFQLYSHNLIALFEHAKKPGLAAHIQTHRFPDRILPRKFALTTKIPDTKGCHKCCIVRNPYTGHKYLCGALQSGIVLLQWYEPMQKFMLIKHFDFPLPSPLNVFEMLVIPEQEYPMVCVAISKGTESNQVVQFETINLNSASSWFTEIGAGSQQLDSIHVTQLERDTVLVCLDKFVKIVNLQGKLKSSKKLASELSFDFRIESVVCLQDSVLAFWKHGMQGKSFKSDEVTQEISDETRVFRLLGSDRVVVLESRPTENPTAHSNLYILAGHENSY
Experimental: as §1, §2

[8] = target: MLK1/MAP3K9 (Homo sapiens, UniProt P80192); details: for IC50: HTRF Transcreener ADP assay
Chain of MLK1/MAP3K9 (P80192 whole entry): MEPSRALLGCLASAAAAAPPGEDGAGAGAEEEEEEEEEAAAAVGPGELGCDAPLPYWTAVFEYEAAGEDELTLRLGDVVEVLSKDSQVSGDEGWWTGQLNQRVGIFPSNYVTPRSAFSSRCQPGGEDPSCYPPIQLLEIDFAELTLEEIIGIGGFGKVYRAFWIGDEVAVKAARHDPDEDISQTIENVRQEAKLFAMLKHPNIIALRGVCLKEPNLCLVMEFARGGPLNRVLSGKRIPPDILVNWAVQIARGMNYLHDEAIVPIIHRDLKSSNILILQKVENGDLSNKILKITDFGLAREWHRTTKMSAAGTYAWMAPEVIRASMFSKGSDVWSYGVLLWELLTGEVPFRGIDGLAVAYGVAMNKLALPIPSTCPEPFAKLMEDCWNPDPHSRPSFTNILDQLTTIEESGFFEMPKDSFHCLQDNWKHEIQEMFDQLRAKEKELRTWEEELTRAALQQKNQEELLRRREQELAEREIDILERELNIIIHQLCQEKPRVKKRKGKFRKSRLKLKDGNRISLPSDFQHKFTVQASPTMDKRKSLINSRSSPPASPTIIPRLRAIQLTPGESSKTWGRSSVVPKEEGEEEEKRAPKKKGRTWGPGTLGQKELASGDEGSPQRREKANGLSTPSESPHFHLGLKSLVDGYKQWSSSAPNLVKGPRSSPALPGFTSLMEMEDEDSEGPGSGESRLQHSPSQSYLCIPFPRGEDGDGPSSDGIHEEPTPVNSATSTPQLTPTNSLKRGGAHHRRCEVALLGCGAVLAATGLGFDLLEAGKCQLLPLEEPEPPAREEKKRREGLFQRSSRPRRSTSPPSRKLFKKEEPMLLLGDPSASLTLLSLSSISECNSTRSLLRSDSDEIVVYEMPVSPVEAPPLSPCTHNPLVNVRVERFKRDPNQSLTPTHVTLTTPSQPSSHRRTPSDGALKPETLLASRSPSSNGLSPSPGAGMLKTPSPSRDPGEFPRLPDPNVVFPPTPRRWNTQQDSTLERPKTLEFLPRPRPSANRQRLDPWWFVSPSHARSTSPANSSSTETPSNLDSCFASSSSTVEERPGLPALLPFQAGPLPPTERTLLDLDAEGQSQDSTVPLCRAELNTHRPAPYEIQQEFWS
Experimental: as §1, §2

[9] = target: MLK3/MAP3K11 (Homo sapiens, UniProt Q16584); details: for IC50: HTRF Transcreener ADP assay
Chain of MLK3/MAP3K11 (Q16584 whole entry): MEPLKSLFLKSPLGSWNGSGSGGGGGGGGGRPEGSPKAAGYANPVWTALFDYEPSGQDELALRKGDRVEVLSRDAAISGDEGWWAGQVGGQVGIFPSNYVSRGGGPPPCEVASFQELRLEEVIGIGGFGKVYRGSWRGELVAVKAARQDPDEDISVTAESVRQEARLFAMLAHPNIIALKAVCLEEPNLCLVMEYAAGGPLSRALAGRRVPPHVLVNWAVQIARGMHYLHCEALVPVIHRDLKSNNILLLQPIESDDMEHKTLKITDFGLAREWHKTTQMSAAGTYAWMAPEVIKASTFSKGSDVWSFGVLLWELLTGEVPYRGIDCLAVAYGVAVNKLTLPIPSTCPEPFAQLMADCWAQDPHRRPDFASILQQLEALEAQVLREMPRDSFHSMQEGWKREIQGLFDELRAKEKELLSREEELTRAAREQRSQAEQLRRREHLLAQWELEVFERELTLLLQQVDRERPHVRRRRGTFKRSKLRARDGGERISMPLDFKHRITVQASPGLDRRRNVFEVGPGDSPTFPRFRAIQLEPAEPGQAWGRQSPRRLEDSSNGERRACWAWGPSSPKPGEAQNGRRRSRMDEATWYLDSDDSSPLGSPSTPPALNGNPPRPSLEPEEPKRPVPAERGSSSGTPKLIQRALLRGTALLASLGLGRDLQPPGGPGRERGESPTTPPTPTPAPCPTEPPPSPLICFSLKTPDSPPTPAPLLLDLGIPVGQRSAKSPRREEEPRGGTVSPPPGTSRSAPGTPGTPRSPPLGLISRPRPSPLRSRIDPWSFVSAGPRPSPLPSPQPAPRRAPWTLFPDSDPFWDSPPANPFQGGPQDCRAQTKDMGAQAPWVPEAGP
Experimental: as §1, §2

Chain of ABL1 (P00519 whole entry): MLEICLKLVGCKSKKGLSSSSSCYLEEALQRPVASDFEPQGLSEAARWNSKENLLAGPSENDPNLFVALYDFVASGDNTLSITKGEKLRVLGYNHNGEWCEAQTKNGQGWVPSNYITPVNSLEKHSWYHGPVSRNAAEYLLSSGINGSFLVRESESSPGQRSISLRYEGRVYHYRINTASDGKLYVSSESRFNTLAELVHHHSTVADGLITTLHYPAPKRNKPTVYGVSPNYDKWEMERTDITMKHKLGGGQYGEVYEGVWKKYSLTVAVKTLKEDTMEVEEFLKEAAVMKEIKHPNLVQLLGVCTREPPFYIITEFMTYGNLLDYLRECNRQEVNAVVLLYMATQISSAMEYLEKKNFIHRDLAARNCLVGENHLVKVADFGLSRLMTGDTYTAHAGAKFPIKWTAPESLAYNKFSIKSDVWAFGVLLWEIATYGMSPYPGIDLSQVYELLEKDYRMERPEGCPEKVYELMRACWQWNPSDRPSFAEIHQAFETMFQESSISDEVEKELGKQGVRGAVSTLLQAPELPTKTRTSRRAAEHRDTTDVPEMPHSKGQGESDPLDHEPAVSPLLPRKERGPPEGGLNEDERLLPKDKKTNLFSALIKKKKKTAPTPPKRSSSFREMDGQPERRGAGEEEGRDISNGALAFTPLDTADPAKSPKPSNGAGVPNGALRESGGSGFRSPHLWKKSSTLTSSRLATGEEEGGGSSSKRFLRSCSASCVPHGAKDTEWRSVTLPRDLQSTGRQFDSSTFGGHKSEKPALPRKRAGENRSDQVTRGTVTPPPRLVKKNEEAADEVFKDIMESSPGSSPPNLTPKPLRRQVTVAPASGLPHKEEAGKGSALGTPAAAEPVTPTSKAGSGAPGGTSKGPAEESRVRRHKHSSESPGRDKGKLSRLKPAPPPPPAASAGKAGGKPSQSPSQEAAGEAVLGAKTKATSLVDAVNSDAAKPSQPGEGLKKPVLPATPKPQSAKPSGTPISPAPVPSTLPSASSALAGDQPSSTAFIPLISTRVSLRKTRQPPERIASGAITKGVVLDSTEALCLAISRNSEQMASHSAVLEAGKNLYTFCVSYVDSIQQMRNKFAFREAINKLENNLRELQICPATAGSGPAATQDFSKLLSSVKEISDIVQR

COCCOc1ccc(-c2cn(-c3ccccc3)c3nc[nH]c(=O)c23)cc1 [DMX-5804, 5-[4-(2-methoxy-ethoxy)-phenyl]-7-phenyl-3,7-dihydro-pyrrolo[2,3-d]pyrimidin-4-one]
IC50 ([1]; ABL1): 1.58 µM | Fold Selectivity ([1]; ABL1 versus MAP4K4): 560 | DMX-5804 vs F1386-0303 ([1]; ratio of fold selectivity, ABL1): 0.65 | DMX-5804 vs F1386-0303 ([2]; ratio of fold selectivity): 1.47 | DMX-5804 vs F1386-0303 ([3]; ratio of fold selectivity): 18.22 | IC50 ([4]; GCK/MAP4K2): 0.316 µM | Fold Selectivity ([4]; GCK/MAP4K2 versus MAP4K4): 112 | DMX-5804 vs F1386-0303 ([4]; ratio of fold selectivity, GCK/MAP4K2): 3.20 | IC50 ([5]; GLK/MAP4K3): 11.2 µM | Fold Selectivity ([5]; GLK/MAP4K3 versus MAP4K4): 3981 | DMX-5804 vs F1386-0303 ([5]; ratio of fold selectivity, GLK/MAP4K3): 4.57 | Fold Selectivity ([6]; GSK3β versus MAP4K4): 7762 | IC50 ([6]; GSK3β): 21.9 µM | DMX-5804 vs F1386-0303 ([6]; ratio of fold selectivity, GSK3β): 10.00 | IC50 ([7]; KHS/MAP4K5): 0.437 µM | Fold Selectivity ([7]; KHS/MAP4K5 versus MAP4K4): 153 | DMX-5804 vs F1386-0303 ([7]; ratio of fold selectivity, KHS/MAP4K5): 0.88 | IC50 ([8]; MLK1/MAP3K9): 0.0646 µM | Fold Selectivity ([8]; MLK1/MAP3K9 versus MAP4K4): 23 | DMX-5804 vs F1386-0303 ([8]; ratio of fold selectivity, MLK1/MAP3K9): 1.53 | IC50 ([9]; MLK3/MAP3K11): 0.102 µM | Fold Selectivity ([9]; MLK3/MAP3K11 versus MAP4K4): 36 | DMX-5804 vs F1386-0303 ([9]; ratio of fold selectivity, MLK3/MAP3K11): 1.57

Oc1ncnc2c1c(-c1ccccc1)cn2-c1ccccc1 [F1386-0303, 5,7-diphenyl-7H-pyrrolo[2,3-d]pyrimidin-4-ol]
IC50 ([1]; ABL1): 30.2 µM | IC50 ([2]; HTRF Transcreener ADP assay): 13.2 µM | IC50 ([3]; HTRF Transcreener ADP assay): 2.19 µM | IC50 ([4]; GCK/MAP4K2): 1.23 µM | IC50 ([5]; GLK/MAP4K3): 30.2 µM | IC50 ([6]; GSK3β): 26.9 µM | IC50 ([7]; KHS/MAP4K5): 6.03 µM | IC50 ([8]; MLK1/MAP3K9): 0.525 µM | IC50 ([9]; MLK3/MAP3K11): 0.813 µM
